Structures are written as SMILES. pIC50: −log10 of the molar value. Several values for one entry are separate records, joined by “and”; a condition that tells them apart may be missing. Equal values may be shown once. Read-outs that look alike come from different tables or passages of the source.

A word on the pIC50: it is −log10 of the IC50, conventionally taken in molar units. As usually defined, the IC50 is the midpoint of a concentration-inhibition curve.

Experiment [1] deals with T1, Factor XIIIa (activated FXIII) (Homo sapiens, UniProt P00488).
T1 construct: purchased Enzyme Research Laboratories, Ltd
T1 sequence (P00488 39-732 limits assumed): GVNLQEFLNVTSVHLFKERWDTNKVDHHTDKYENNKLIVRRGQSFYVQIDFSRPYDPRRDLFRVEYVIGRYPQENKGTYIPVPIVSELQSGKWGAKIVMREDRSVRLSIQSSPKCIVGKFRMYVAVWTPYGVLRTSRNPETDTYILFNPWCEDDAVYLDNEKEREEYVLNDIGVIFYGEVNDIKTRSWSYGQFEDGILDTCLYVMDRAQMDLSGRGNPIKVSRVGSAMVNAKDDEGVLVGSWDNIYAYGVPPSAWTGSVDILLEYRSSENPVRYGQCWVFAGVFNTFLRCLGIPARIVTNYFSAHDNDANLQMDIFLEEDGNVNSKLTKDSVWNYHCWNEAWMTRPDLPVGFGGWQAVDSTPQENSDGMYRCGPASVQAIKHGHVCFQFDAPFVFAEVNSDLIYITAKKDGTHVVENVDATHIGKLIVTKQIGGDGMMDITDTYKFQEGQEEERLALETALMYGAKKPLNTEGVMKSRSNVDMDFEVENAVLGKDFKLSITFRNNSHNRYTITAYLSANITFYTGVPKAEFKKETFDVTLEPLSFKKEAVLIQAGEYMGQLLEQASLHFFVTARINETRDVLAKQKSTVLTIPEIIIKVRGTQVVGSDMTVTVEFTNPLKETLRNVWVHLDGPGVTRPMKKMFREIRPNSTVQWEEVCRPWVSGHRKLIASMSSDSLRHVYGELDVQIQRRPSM
In words: Inactivation of purified Factor XIIIa (monodansylcadaverine incorporation into dimethylcasein, fluorescence). In kind it is biochemical. To be noted: for IC50: purified activated FXIII, 50% enzyme inactivation after 5-min incubation with inhibitor at 37° C. in the absence of substrate, read-out: FXIIIa (IC50 in μM). As for the experimental part: FXIII (0.5 mg/mL, Enzyme Research Laboratories, Ltd.) in 50 mM Tris-HCl pH 7.5 containing 100 mM NaCl, 40 mM CaCl2, 1 mM EDTA and 0.1% poly(ethylene glycol) (app. MW=8000) was activated by incubation with 10 NIH units/mL of human thrombin (Calbiochem) at 37° C. for 20 min. Thrombin was quenched with 20 NIH units/mL of hirudin from Leech (Sigma).
Inhibitor solution in DMSO (14 μL) was added to 120 μL of 250 mM Tris-Cl pH 7.5 containing 40 mM CaCl2 and 1 mM EDTA and the solution was incubated at 37° C. for two minutes. Activated FXIII (5 μL, 0.5 mg/mL) was added and the mixture was incubated at 37° C. for 5 min.
An assay mixture composed of 50 mM Tris-Cl pH 8.0, 10 mM CaCl2, 1 mM EDTA, 0.1% poly(ethylene glycol) (app. MW=1000) and 20 μM monodansylcadaverine was prepared in a spectrofluorometric cell in a final volume of 2880 μL. Dimethylcasein (8 μL, 1% in 50 mM sodium phosphate pH 7.5) was added and the solution was incubated at 37° C. for a few minutes. To assay the residual enzyme activity, 120 μL of the solution containing the enzyme and the inhibitor was transferred to the assay mixture. The covalent incorporation of monodansylcadaverine into casein was monitored by an increase in fluorescence at λexc=360 nm and λem=500 nm as previously described (Curtis, C. G.; Lorand, L. Methods Enzymol. 1976, 45, 177-191). To determine uninhibited enzyme activity, DMSO was used in place of inhibitor solution in the above assay. IC50 were determined by plotting the percent of remaining enzyme activity against logarithm of inhibitor concentration. IC50 is defined here as an inhibitor concentration resulting in 50% enzyme inactivation after 5-min incubation of the enzyme with the inhibitor in the absence of the substrate. Second order rate constants for inactivation were determined using method described by Kitz and Wilson (Kitz, R.; Wilson, I. J. Biol. Chem. 1962, 237, 3245).

For another experiment, the target named is T2, Guinea pig liver TGase (Cavia cutleri, UniProt P08587).
T2 construct: Guinea pig liver TGase; from tissue; host or cells: guinea pig liver
T2 sequence (P08587 2-690): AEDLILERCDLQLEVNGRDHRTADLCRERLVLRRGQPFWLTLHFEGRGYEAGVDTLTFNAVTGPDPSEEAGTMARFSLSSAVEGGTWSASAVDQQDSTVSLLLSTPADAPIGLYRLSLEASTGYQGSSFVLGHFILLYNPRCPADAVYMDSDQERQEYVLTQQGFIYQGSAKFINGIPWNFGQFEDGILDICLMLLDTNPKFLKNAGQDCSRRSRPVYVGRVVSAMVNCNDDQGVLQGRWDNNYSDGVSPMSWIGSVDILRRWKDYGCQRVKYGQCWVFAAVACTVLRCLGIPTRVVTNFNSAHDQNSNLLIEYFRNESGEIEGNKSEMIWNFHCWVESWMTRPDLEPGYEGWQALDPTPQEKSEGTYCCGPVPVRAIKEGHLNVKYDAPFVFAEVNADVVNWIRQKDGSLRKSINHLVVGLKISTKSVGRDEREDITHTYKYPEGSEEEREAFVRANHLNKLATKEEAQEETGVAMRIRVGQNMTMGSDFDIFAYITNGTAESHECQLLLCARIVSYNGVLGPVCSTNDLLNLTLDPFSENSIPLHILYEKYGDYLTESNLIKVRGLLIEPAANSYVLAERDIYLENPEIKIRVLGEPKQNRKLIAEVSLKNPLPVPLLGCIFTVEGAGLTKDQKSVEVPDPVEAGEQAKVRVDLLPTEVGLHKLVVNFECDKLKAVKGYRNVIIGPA
The experiment is described as follows: Enzyme selectivity: inactivation of tissue type transglutaminase. Format: biochemical. The note with it: TGAse IC50, Guinea pig liver TGase; 5-min incubation at 37° C. in the absence of substrate. As for the experimental part: Enzyme selectivity . Inactivation of tissue type transglutaminase: Inhibitor solution in DMSO (5 μL) was added to 250 mM Tris-Cl pH 7.5 containing 40 mM CaCl2 and 1 mM EDTA in a final volume of 42 μL. Guinea pig liver TGase (3 μL, 2.5 mg/mL in 5 mM Tris-HCl pH 7.5, 2 mM EDTA) was added and the mixture was incubated for 5 min. at 37° C.
An assay mixture composed of 50 mM Tris-Cl, pH 8.0, 10 mM CaCl2, 1 mM EDTA, 0.1% poly(ethylene glycol) (app. MW=1000) and 20 μM monodansylcadaverine was prepared in a spectrofluorimetric cell in a final volume of 2952 μL. Dimethylcasein (8 μL, 1% in 50 mM sodium phosphate pH 7.5) was added and the mixture was incubated at 37° C. for a few minutes. To assay the residual enzyme activity, 40 μL of the solution containing the enzyme and the inhibitor was transferred to the assay mixture. The covalent incorporation of monodansylcadaverine into casein was monitored by an increase in fluorescence at λexc=360 nm and λem=500 nm, as previously described ((Curtis, C. G.; Lorand, L. Methods Enzymol. 1976, 45, 177-191). To determine uninhibited enzyme activity, DMSO was used in place of inhibitor solution in the above assay. IC50 values were determined by plotting the percent of remaining enzyme activity against logarithm of inhibitor concentration. IC50 is defined here as inhibitor concentration resulting in 50% enzyme inactivation after 5-min incubation of the enzyme with the inhibitor in the absence of the substrate. Second order rate constants for inactivation were determined using method described by Kitz and Wilson (Kitz, R.; Wilson, I. J.Biol.Chem. 1962,237, 3245).

As to `O=S(=O)(NCCCCCCNc1nsc2nccn12)c1ccccc1C(F)(F)F` [2-CF3-Ph / H, N-[6-(imidazo[1,2-d][1,2,4]thiadiazol-3-ylamino)hexyl]-2-trifluoromethylbenzenesulfonamide], in experiment [1] (purified Factor XIIIa, method of Kitz and Wilson, read-out: Second order rate constant for inactivation), the kinact/KI is 12000 M⁻¹ s⁻¹. Further, the pIC50 in experiment [1] (values marked *, read-out: FXIIIa IC50, *values calculated from second order rate constant for inactivation) was 6.59 and 6.74; against Guinea pig liver TGase, 5.12 and 5.42.

Turning to `CCOC(=O)CN(CCCCCCNc1nsc2nccn12)S(=O)(=O)c1cccc2ccccc12` [1 / OEt / 1-naphthyl, Ethyl N-[6-(imidazo[1,2-d][1,2,4]thiadiazol-3-ylamino)hexyl]-N-(1-naphthylsulfonyl) glycinate], in experiment [1], the IC50 was determined as 7.4 µM.

`COc1cc(C)c(S(=O)(=O)NCCCCCCNc2nsc3nccn23)c(C)c1C` [2-Me-3-Me-4-OMe-6-Me-Ph, N-[6-(imidazo[1,2-d][1,2,4]thiadiazol-3-ylamino)hexyl]-4-methoxy-2,3,6-trimethylbenzenesulfonamide]: in experiment [1], the IC50 is 14 µM.

`NC(=O)c1ccccc1S(=O)(=O)NCCCCCCNc1nsc2nccn12` [2-CONH2-Ph, 2-({[6-(imidazo[1,2-d][1,2,4]thiadiazol-3-ylamino)hexyl]amino}sulfonyl)benzamide]: in experiment [1], the IC50 is 3 µM.

For `O=C(O)c1ccc(S(=O)(=O)NCCCCCCNc2nsc3nccn23)cc1` [4-COOH-Ph, 4-carboxy-N-[6-(imidazo[1,2-d][1,2,4]thiadiazol-3-ylamino)hexyl]benzenesulfonamide], in experiment [1], the IC50 is 11.4 µM.

For the compound `O=C(O)c1ccccc1S(=O)(=O)NCCCCCCNc1nsc2nccn12` [2-COOH-Ph, 2-carboxy-N-[6-(imidazo[1,2-d][1,2,4]thiadiazol-3-ylamino)hexyl]benzenesulfonamide], the IC50 in experiment [1] was found to be 6.8 µM.

Turning to `Cc1cc(S(=O)(=O)NCCCCCCNc2nsc3nccn23)c(C)cc1Cl` [2-Me-4-C1-5-Me-Ph, 4-chloro-2,5-dimethyl-N-[6-(imidazol[1,2-d][1,2,4]thiadiazol-3-ylamino)hexyl]benzenesulfonamide], in experiment [1], the IC50 was 0.95 µM.

`O=S(=O)(NCCCCCCNc1nsc2nccn12)c1ccc2ccccc2c1` [2-naphthyl, N-[6-(imidazo[1,2-d][1,2,4]thiadiazol-3-ylamino)hexyl]naphthalene-2-sulfonamide]: in experiment [1], the IC50 amounted to 1.3 µM.

On to `Cc1cc(C)c(S(=O)(=O)NCCCCCCNc2nsc3nccn23)c(C)c1` [2,4,6-TriMe-Ph, N-[6-(imidazo[1,2-d][1,2,4]thiadiazol-3-ylamino)hexyl]-2,4,6-trimethylbenzenesulfonamide], for which, in experiment [1], the concentration for half-maximal inhibition (IC50) worked out at 1.3 µM.

In the case of `CN(CCCCCCNc1nsc2nccn12)S(=O)(=O)c1ccccc1[N+](=O)[O-]` [CH3 / H / 2-NO2-Ph, N-[6-(Imidazo[1,2-d][1,2,4]thiadiazol-3-ylamino)hexyl]-N-methyl-2-nitro benzene sulfonamide], the concentration for half-maximal inhibition (IC50) in experiment [1] stood at 1.3 µM.

Turning to `O=S(=O)(NCCCCCCNc1nsc2nccn12)c1cccc(C(F)(F)F)c1` [3-CF3-Ph, N-[6-(imidazo[1,2-d][1,2,4]thiadiazol-3-ylamino)hexyl]-3-trifluoromethylbenzenesulfonamide], the IC50 in experiment [1] is 4.7 µM.

Consider `O=[N+]([O-])c1cc(C(F)(F)F)ccc1S(=O)(=O)NCCCCCCNc1nsc2nccn12` [2-NO2-4-CF3-Ph, N-[6-(imidazo[1,2-d][1,2,4]thiadiazol-3-ylamino)hexyl]-2-nitro-4-trifluorobenzenesulfonamide], for which the IC50 in experiment [1] is 0.77 µM.

As to `O=C(O)c1cccc(S(=O)(=O)NCCCCCCNc2nsc3nccn23)c1` [3-COOH-Ph, 3-carboxy-N-[6-(imidazo[1,2-d][1,2,4]thiadiazol-3-ylamino)hexyl]benzenesulfonamide], the IC50 in experiment [1] was found to be 13.7 µM.

For `O=S(=O)(NCCCCCCNc1nsc2nccn12)c1cccc2cccnc12` [Quinoline-8-, N-[6-(imidazo[1,2-d][1,2,4]thiadiazol-3-ylamino)hexyl]quinoline-8-sulfonamide], the IC50 in experiment [1] turned out to be 2.6 µM.

For the compound `NC(=O)CCN(CCCCCCNc1nsc2nccn12)S(=O)(=O)c1ccc(F)cc1F` [2 / NH2 / 2-F-4-F-Ph, N^3-[(2,4-difluorophenyl)sulfonyl]-N^3-[6-(imidazo[1,2-d][1,2,4]thiadiazol-3-ylamino)hexyl]-β-alaninamide], the IC50 in experiment [1] was 8.9 µM.

On to `CN(CCCCCCNS(=O)(=O)c1ccccc1[N+](=O)[O-])c1nsc2nccn12` [2-NO2-Ph / CH3, N-{6-[imidazo[1,2-d][1,2,4]thiadiazol-3-yl(methyl)amino]hexyl}-2-nitrobenzenesulfonamide], for which the pIC50 at Guinea pig liver TGase is 5.21.

As to `COc1cc(C)ccc1S(=O)(=O)NCCCCCCNc1nsc2nccn12` [2-OMe-4-Me-Ph, N-[6-(imidazol[1,2-d][1,2,4]thiadiazol-3-ylamino)hexyl]-2-methoxy-4-methylbenzenesulfonamide], the IC50 in experiment [1] is 24 µM.

In the case of `O=S(=O)(NCCCCCCNc1nsc2nccn12)c1ccc(-c2ccccc2)cc1` [4-Ph-Ph, N-[6-(imidazo[1,2-d][1,2,4]thiadiazol-3-ylamino)hexyl]-4-phenylbenzenesulfonamide], in experiment [1], the IC50 came to 1.3 µM.
